Reference: patent US12532661B2, “Compound and organic light emitting device comprising the same” (LG Chem, Ltd., priority 2020, dated 2026)

Assay: Solubility experiment in cyclohexanone (CHON)
Format: physicochemical
Conditions: normal temperature/pressure, whether 0.1 wt % or more was dissolved
Procedure: In order to confirm the solubility in the solvent used in the solution process of the compounds prepared in the Preparation Examples and the comparative compounds, each of them was dissolved in the solvent cyclohexanone (CHON) under normal temperature/pressure conditions, and it was confirmed whether 0.1 wt % or more was dissolved.

For `Cc1cccc(N(c2ccc3c4c5ccc6c(c5ccc4n(-c4ccccc4)c3c2)c2ccc(N(c3ccc4c5c7ccc8c(c7ccc5n(-c5ccccc5)c4c3)c3ccc(N(c4cccc(C)c4)c4cccc5c4oc4ccccc45)cc3n8-c3ccccc3)c3ccc4c5c7ccc8c(c7ccc5n(-c5ccccc5)c4c3)c3ccc(N(c4cccc(C)c4)c4cccc5c4oc4ccccc45)cc3n8-c3ccccc3)cc2n6-c2ccccc2)c2cccc3c2oc2ccccc23)c1` [Compound 1], the “Solubility, Solvent CHON” value was “○ (Evaluation list (○): 0.1 wt. % or more soluble)”.
For `c1ccc(-n2c3ccccc3c3cc(-c4ccc(N(c5ccc6ccccc6c5)c5ccc6c7c8ccc9c(c8ccc7n(-c7ccccc7)c6c5)c5ccc(N(c6ccc7c8c%10ccc%11c(c%10ccc8n(-c8ccccc8)c7c6)c6ccc(N(c7ccc(-c8ccc%10c(c8)c8ccccc8n%10-c8ccccc8)cc7)c7ccc8ccccc8c7)cc6n%11-c6ccccc6)c6ccc7c8c%10ccc%11c(c%10ccc8n(-c8ccccc8)c7c6)c6ccc(N(c7ccc(-c8ccc%10c(c8)c8ccccc8n%10-c8ccccc8)cc7)c7ccc8ccccc8c7)cc6n%11-c6ccccc6)cc5n9-c5ccccc5)cc4)ccc32)cc1` [Compound 3], the “Solubility, Solvent CHON” value was “○ (Evaluation list (○): 0.1 wt. % or more soluble)”.
In the case of `Cc1cccc(N(c2ccc3c4c5ccc6c(c5ccc4n(-c4ccccc4)c3c2)c2ccc(-c3cc(-c4ccc5c7c8ccc9c(c8ccc7n(-c7ccccc7)c5c4)c4ccc(N(c5cccc(C)c5)c5cccc7c5oc5ccccc57)cc4n9-c4ccccc4)cc(-c4ccc5c7c8ccc9c(c8ccc7n(-c7ccccc7)c5c4)c4ccc(N(c5cccc(C)c5)c5cccc7c5oc5ccccc57)cc4n9-c4ccccc4)c3)cc2n6-c2ccccc2)c2cccc3c2oc2ccccc23)c1` [Compound 4], the “Solubility, Solvent CHON” value is reported as “○ (Evaluation list (○): 0.1 wt. % or more soluble)”.
For `CC(C)(C)c1ccc(N(c2ccc(C(C)(C)C)cc2)c2ccc3c4c5ccc6c(c5ccc4n(-c4ccccc4)c3c2)c2ccc(-c3cc(-c4ccc5c7c8ccc9c(c8ccc7n(-c7ccccc7)c5c4)c4ccc(N(c5ccc(C(C)(C)C)cc5)c5ccc(C(C)(C)C)cc5)cc4n9-c4ccccc4)cc(-c4ccc5c7c8ccc9c(c8ccc7n(-c7ccccc7)c5c4)c4ccc(N(c5ccc(C(C)(C)C)cc5)c5ccc(C(C)(C)C)cc5)cc4n9-c4ccccc4)c3)cc2n6-c2ccccc2)cc1` [Compound 5], the “Solubility, Solvent CHON” value was “○ (Evaluation list (○): 0.1 wt. % or more soluble)”.
In the case of `CC(C)(C)c1ccc(N(c2ccc(C(C)(C)C)cc2)c2ccc3c4c5ccc6c(c5ccc4n(-c4ccccc4)c3c2)c2ccc(N(c3ccc(C(C)(C)C)cc3)c3cc(N(c4ccc(C(C)(C)C)cc4)c4ccc5c7c8ccc9c(c8ccc7n(-c7ccccc7)c5c4)c4ccc(N(c5ccc(C(C)(C)C)cc5)c5ccc(C(C)(C)C)cc5)cc4n9-c4ccccc4)cc(N(c4ccc(C(C)(C)C)cc4)c4ccc5c7c8ccc9c(c8ccc7n(-c7ccccc7)c5c4)c4ccc(N(c5ccc(C(C)(C)C)cc5)c5ccc(C(C)(C)C)cc5)cc4n9-c4ccccc4)c3)cc2n6-c2ccccc2)cc1` [Compound 12], the “Solubility, Solvent CHON” value is reported as “○ (Evaluation list (○): 0.1 wt. % or more soluble)”.
In the case of `Cc1cccc(N(c2ccc3c4c5ccc6c(c5ccc4n(-c4ccccc4)c3c2)c2ccc(Oc3cc(Oc4ccc5c7c8ccc9c(c8ccc7n(-c7ccccc7)c5c4)c4ccc(N(c5cccc(C)c5)c5cccc7c5oc5ccccc57)cc4n9-c4ccccc4)cc(Oc4ccc5c7c8ccc9c(c8ccc7n(-c7ccccc7)c5c4)c4ccc(N(c5cccc(C)c5)c5cccc7c5oc5ccccc57)cc4n9-c4ccccc4)c3)cc2n6-c2ccccc2)c2cccc3c2oc2ccccc23)c1` [Compound 14], the “Solubility, Solvent CHON” value is reported as “○ (Evaluation list (○): 0.1 wt. % or more soluble)”.
For `Cc1cccc(N(c2ccc3c4c5ccc6c(c5ccc4n(-c4ccccc4)c3c2)c2ccc(Oc3cccc(-c4cc(-c5cccc(Oc7ccc8c9c%10ccc%11c(c%10ccc9n(-c9ccccc9)c8c7)c7ccc(N(c8cccc(C)c8)c8cccc9c8oc8ccccc89)cc7n%11-c7ccccc7)c5)cc(-c5cccc(Oc7ccc8c9c%10ccc%11c(c%10ccc9n(-c9ccccc9)c8c7)c7ccc(N(c8cccc(C)c8)c8cccc9c8oc8ccccc89)cc7n%11-c7ccccc7)c5)c4)c3)cc2n6-c2ccccc2)c2cccc3c2oc2ccccc23)c1` [Compound 15], the “Solubility, Solvent CHON” value was “○ (Evaluation list (○): 0.1 wt. % or more soluble)”.
In the case of `Cc1cccc(N(c2ccc3c4c5ccc6c(c5ccc4n(-c4ccccc4)c3c2)c2ccc(Oc3ccc(-c4cc(-c5ccc(Oc7ccc8c9c%10ccc%11c(c%10ccc9n(-c9ccccc9)c8c7)c7ccc(N(c8cccc(C)c8)c8cccc9c8oc8ccccc89)cc7n%11-c7ccccc7)cc5)cc(-c5ccc(Oc7ccc8c9c%10ccc%11c(c%10ccc9n(-c9ccccc9)c8c7)c7ccc(N(c8cccc(C)c8)c8cccc9c8oc8ccccc89)cc7n%11-c7ccccc7)cc5)c4)cc3)cc2n6-c2ccccc2)c2cccc3c2oc2ccccc23)c1` [Compound 16], the “Solubility, Solvent CHON” value is reported as “○ (Evaluation list (○): 0.1 wt. % or more soluble)”.
With `Cc1cccc(N(c2ccc3c(c2)c2c4ccc5c(c4ccc2n3-c2ccccc2)c2cc(N(c3ccc4c(c3)c3c6ccc7c(c6ccc3n4-c3ccccc3)c3cc(N(c4cccc(C)c4)c4cccc6c4oc4ccccc46)ccc3n7-c3ccccc3)c3ccc4c(c3)c3c6ccc7c(c6ccc3n4-c3ccccc3)c3cc(N(c4cccc(C)c4)c4cccc6c4oc4ccccc46)ccc3n7-c3ccccc3)ccc2n5-c2ccccc2)c2cccc3c2oc2ccccc23)c1` [Compound 17] the “Solubility, Solvent CHON” value was “○ (Evaluation list (○): 0.1 wt. % or more soluble)”.
In the case of `Cc1cccc(N(c2cccc3c2oc2ccccc23)c2cccc3c2c2c4ccc5c(c4ccc2n3-c2ccccc2)c2c(N(c3cccc4c3c3c6ccc7c(c6ccc3n4-c3ccccc3)c3c(N(c4cccc(C)c4)c4cccc6c4oc4ccccc46)cccc3n7-c3ccccc3)c3cccc4c3c3c6ccc7c(c6ccc3n4-c3ccccc3)c3c(N(c4cccc(C)c4)c4cccc6c4oc4ccccc46)cccc3n7-c3ccccc3)cccc2n5-c2ccccc2)c1` [Compound 19], the “Solubility, Solvent CHON” value is reported as “○ (Evaluation list (○): 0.1 wt. % or more soluble)”.
